The source of these data is US7910612B2, “4-oxy-N-[1,3,4]-thiadiazol-2-yl-benzene sulfonamides, pharmaceutical compositions and methods for their therapeutic use” (Sanofi-Aventis, priority 2005, dated 2011).

SMILES strings stand for the structures.

The assay deals with T1, human PPARalpha (Homo sapiens, UniProt Q07869).
T1 construct: amino acids S167-Y468; expressed in transfected cells; host or cells: HEK (human embryo kidney) cells, stably transfected, pcDNA3 vector
T1 sequence (Q07869 167-468): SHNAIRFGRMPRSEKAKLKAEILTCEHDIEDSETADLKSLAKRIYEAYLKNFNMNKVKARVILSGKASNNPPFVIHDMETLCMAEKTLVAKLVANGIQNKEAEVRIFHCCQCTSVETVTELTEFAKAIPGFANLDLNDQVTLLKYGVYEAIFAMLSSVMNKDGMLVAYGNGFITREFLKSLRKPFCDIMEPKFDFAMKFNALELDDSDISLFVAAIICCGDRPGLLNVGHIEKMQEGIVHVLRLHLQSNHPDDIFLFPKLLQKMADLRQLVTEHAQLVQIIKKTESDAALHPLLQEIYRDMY
In words: cellular PPARalpha assay (stably transfected HEK luciferase reporter cell line). Type of assay: cell-based. As to the method:
The activity of the compounds was tested by a determination of EC50 values of PPAR agonists in the cellular PPARalpha assay. The potency of substances which bind to human PPARalpha and activate it in an agonistic manner is analyzed using a stably transfected HEK cell line (HEK=human embryo kidney) which is referred to here as PPARalpha reporter cell line. It contains two genetic elements, a luciferase reporter element (pdeltaM-GAL4-Luc-Zeo) and a PPARalpha fusion protein (GR-GAL4-humanPPARalpha-LBD) which mediates expression of the luciferase reporter element depending on a PPARalpha ligand. The stably and constitutively expressed fusion protein GR-GAL4-humanPPARalpha-LBD binds in the cell nucleus of the PPARalpha reporter cell line via the GAL4 protein portion to the GAL4 DNA binding motifs 5′-upstream of the luciferase reporter element which is stably integrated in the genome of the cell line. There is only weak expression of the luciferase reporter gene in the absence of a PPARalpha ligand if fatty acid-depleted fetal calf serum (cs-FCS) is used in the assay. PPARalpha ligands bind and activate the PPARalpha fusion protein and thereby stimulate the expression of the luciferase reporter gene. The luciferase which is formed can be detected by means of chemiluminescence via an appropriate substrate.
The PPARalpha reporter cell line was prepared in two stages. Firstly, the luciferase reporter element was constructed and stably transfected into HEK cells. For this purpose, five binding sites of the yeast transcription factor GAL4 (Accession # AF264724) were cloned in 5′-upstream of a 68 bp-long minimal MMTV promoter (Accession #V01175). The minimal MMTV promoter section contains a […] and a TATA element in order to enable efficient transcription by RNA polymerase II. The cloning and sequencing of the GAL4-MMTV construct took place in analogy to the description of Sambrook J. et. al. (Molecular cloning, Cold Spring Harbor Laboratory Press, 1989). Then the complete Photinus pyralis gene (Accession #M15077) was cloned in 3′-downstream of the GAL4-MMTV element. After sequencing, the luciferase reporter element consisting of five GAL4 binding sites, MMTV promoter and luciferase gene was recloned into a plasmid which confers zeocin resistance in order to obtain the plasmid pdeltaM-GAL4-Luc-Zeo. This vector was transfected into HEK cells in accordance with the statements in Ausubel, F. M. et al. (Current protocols in molecular biology, Vol. 1-3, John Wiley & Sons, Inc., 1995).
In a second step, the PPARalpha fusion protein (GR-GAL4-humanPPARalpha-LBD was introduced into the stable cell clone described. For this purpose, initially the cDNA coding for the N-terminal 76 amino acids of the glucocorticoid receptor (Accession #P04150) was linked to the cDNA section coding for amino acids 1-147 of the yeast transcription factor GAL4 (Accession #P04386). The cDNA of the ligand-binding domain of the human PPARalpha receptor (amino acids S167-Y468; Accession #S74349) was cloned in at the 3′-end of this GR-GAL4 construct. The fusion construct prepared in this way (GR-GAL4-humanPPARalpha-LBD) was recloned into the plasmid pcDNA3 (Invitrogen) in order to enable constitutive expression therein by the cytomegalovirus promoter. This plasmid was linearized with a restriction endonuclease and stably transfected into the previously described cell clone containing the luciferase reporter element. The finished PPARalpha reporter cell line which contains a luciferase reporter element and constitutively expresses the PPARalpha fusion protein (GR-GAL4-human PPARalpha-LBD) was isolated by selection with zeocin (0.5 mg/ml) and G418 (0.5 mg/ml).
Assay procedure.—The activity of PPARalpha agonists is determined in a 3-day assay which is described below: […]
In general terms: A reporter such as luciferase makes a cellular process visible.
As usually defined, the EC50 is the midpoint of the concentration-response curve. Low readings indicate an effect from little substance, high ones a need for much substance. Consider `Cc1nc(-c2ccc(C(F)(F)F)cc2)sc1COc1ccc(S(=O)(=O)Nc2nnc(C(C)C)s2)cc1` [Example 1, N-(5-Isopropyl-[1,3,4]thiadiazol-2-yl)-4-[4-methyl-2-(4-trifluoromethyl-phenyl)-thiazol-5-ylmethoxy]-benzenesulfonamide], for which the EC50 was found to be 2900 nM. For `CC(C)c1nnc(NS(=O)(=O)c2ccc(OCc3ccc(Oc4ccc(C(F)(F)F)cc4)cc3)cc2)s1` [Example 4, N-(5-Isopropyl-[1,3,4]thiadiazol-2-yl)-4-[4-(4-trifluoromethyl-phenoxy)-benzyloxy]-benzenesulfonamide] the value was 540 nM. For `COc1ccc(-c2nc(COc3ccc(S(=O)(=O)Nc4nnc(C(C)C)s4)cc3)co2)cc1` [Example 13, N-(5-Isopropyl-[1,3,4]thiadiazol-2-yl)-4-[2-(4-methoxy-phenyl)-oxazol-4-ylmethoxy]-benzenesulfonamide] the value was 1200 nM.

Consider `COc1ccc2c(COc3ccc(S(=O)(=O)Nc4nnc(C(C)C)s4)cc3)coc2c1` [Example 3, N-(5-Isopropyl-[1,3,4]thiadiazol-2-yl)-4-(6-methoxy-benzofuran-3-ylmethoxy)-benzenesulfonamide], for which the EC50 was 4570 nM. For `COc1ccc(-c2nc(COc3ccc(S(=O)(=O)Nc4nnc(C(C)C)s4)cc3)no2)cc1` [Example 9, N-(5-Isopropyl-[1,3,4]thiadiazol-2-yl)-4-[5-(4-methoxy-phenyl)-[1,2,4]oxadiazol-3-ylmethoxy]-benzenesulfonamide] the value was 1420 nM. For `CCc1oc(-c2cccc(C(F)(F)F)c2)nc1COc1ccc(S(=O)(=O)Nc2nnc(C(C)C)s2)cc1` [Example 14, 4-[5-Ethyl-2-(3-trifluoromethyl-phenyl)-oxazol-4-ylmethoxy]-N-(5-isopropyl-[1,3,4]thiadiazol-2-yl)-benzenesulfonamide] the value was 190 nM.
